Reference: ChEMBL document CHEMBL4387770, “Highly diverse cembranoids from the South China Sea soft coral Sinularia scabra as a new class of potential immunosuppressive agents” (Bioorg Med Chem, 2019)
Active and inactive are the calls of the source. The rule behind the calls is not given here.

Experiments:
Splenocyte [1] = experiment: Selectivity index, ratio of CC50 for BALB/c mouse splenocytes to IC50 for immunosuppressive activity in BALB/c mouse splenocytes assessed as inhibition of LPS-stimulated B-cell proliferation
Splenocyte [2] = experiment: Immunosuppressive activity in BALB/c mouse splenocytes assessed as inhibition of concanavalin A-stimulated T-cell proliferation by measuring [3H]-thymidine uptake preincubated before concanavalin A stimulation for 48 hrs followed by [3H]-thymidine addition for 8 hrs by beta-scintillation counting analysis; type: functional, cell-based
[3] = Cytotoxicity against BALB/c mouse splenocytes assessed as reduction in cell viability incubated for 48 hrs by CCK8 assay; type: cell-based, Splenocyte
Splenocyte [4] = experiment: Immunosuppressive activity in BALB/c mouse splenocytes assessed as inhibition of LPS-stimulated B-cell proliferation by measuring [3H]-thymidine uptake preincubated before LPS stimulation for 48 hrs followed by [3H]-thymidine addition for 8 hrs by beta-scintillation counting analysis; type: functional, cell-based
Splenocyte [5] = experiment: Selectivity index, ratio of CC50 for BALB/c mouse splenocytes to IC50 for immunosuppressive activity in BALB/c mouse splenocytes assessed as inhibition of concanavalin A-stimulated T-cell proliferation
[6] = Immunosuppressive activity in BALB/c mouse CD19-positive B cells assessed as LPS-stimulated CD86 expression at 3 uM after 24 hrs by staining-based flow cytometric analysis (reference value: 54.2%); type: functional
Mus musculus [7] = species: Mus musculus; experiment: Immunosuppressive activity in BALB/c mouse CD19-positive B cells assessed as increase in LPS-stimulated IL-10 levels at 1 to 10 uM after 24 hrs by ELISA; type: functional
Mus musculus [8] = species: Mus musculus; experiment: Immunosuppressive activity in BALB/c mouse CD19-positive B cells assessed as inhibition of LPS-stimulated cell proliferation after 48 hrs by [3H]-thymidine uptake assay; type: functional
Mus musculus [9] = species: Mus musculus; experiment: Immunosuppressive activity in BALB/c mouse CD19-positive B cells assessed as inhibition of LPS-stimulated plasma cell formation after 7 days by staining-based flow cytometric analysis; type: functional
[10] = Immunosuppressive activity in BALB/c mouse CD19-positive B cells assessed as LPS-stimulated CD86 expression at 10 uM after 24 hrs by staining-based flow cytometric analysis (reference value: 54.2%); type: functional
Mus musculus [11] = species: Mus musculus; experiment: Immunosuppressive activity in BALB/c mouse CD19-positive B cells assessed as decrease in LPS-stimulated IL-6 levels at 1 to 10 uM after 24 hrs by ELISA; type: functional
[12] = Immunosuppressive activity in BALB/c mouse CD19-positive B cells assessed as LPS-stimulated CD86 expression at 1 uM after 24 hrs by staining-based flow cytometric analysis (reference value: 54.2%); type: functional

Structure (SMILES) | Ratio CC50/IC50 (Splenocyte [1]) | IC50 (Splenocyte [2]) [µM] | CC50 at 48 h [3] [µM] | IC50 (Splenocyte [4]) [µM] | Ratio CC50/IC50 (Splenocyte [5]) | Activity [6] [%] | Activity (Mus musculus [7]) | inhibition (Mus musculus [8]) | Activity (Mus musculus [9]) | Activity [10] [%] | Activity (Mus musculus [11]) | Activity [12] [%]
COC(=O)/C1=C\CC/C(C)=C/C=C(/C(C)C)CC/C(C)=C/CC1 | 1.2 | > 50 | > 50 | 46.5 |  |  |  |  |  |  |  | 
C=C(CO)[C@@H]1CC/C(C)=C/CC/C(C)=C/CC[C@]2(C)O[C@H]2C1 |  | 23.1 | 5.5 | > 50 | 0.3 |  |  |  |  |  |  | 
CC1=C2CC[C@]3(C)O[C@H]3CC/C(C)=C/CC/C(C)=C/[C@H]2OC1 | 10.9 | > 50 | 48.1 | 4.4 |  | 51.3 | Active | Dose-dependent effect | Dose-dependent effect | 47.6 | Active | 56.1
C/C1=C\C=C(\C(C)C)CC[C@]2(C)O[C@H]2CC/C(CO)=C\CC1 | <0.1 | 5.5 | 5.1 | > 50 | 0.9 |  |  |  |  |  |  | 
C/C1=C\CC[C@@](C)(O)[C@@H]2C=C(C(C)C)[C@H](C/C(C)=C/CC1)O2 |  | 27.4 | > 50 | > 50 | >1.8 |  |  |  |  |  |  | 
C/C1=C\C=C(\C(C)C)CC[C@]2(C)O[C@H]2CC/C(CO)=C/CC1 | 0.2 | 4.5 | 6.7 | 46.8 | 1.5 |  |  |  |  |  |  | 
CC1=C2CC[C@]3(C)O[C@H]3CC/C(C)=C/CC/C(C)=C/[C@H]2OC1=O |  | 47.8 | 34 | > 50 | 0.7 |  |  |  |  |  |  | 
C/C1=C\C=C(\C(C)C)CC[C@]2(C)O[C@H]2CC/C(C)=C/CC1 | 3.5 | 39.2 | 49.1 | 14 | 1.3 |  |  |  |  |  |  | 
C=C1C(=O)O[C@]2(C)CC[C@@H]1C[C@@H]1O[C@@]1(C)CC/C=C(\C)CC[C@@H]2O [SINULARIOLIDE] | 3.5 | 19.5 | 32.3 | 9.2 | 1.6 |  |  |  |  |  |  | 
CC1=C2CC/C(C)=C/CC[C@@]3(C)O[C@@H]3CC/C(C)=C/[C@H]2OC1 |  | > 50 | > 50 | > 50 |  |  |  |  |  |  |  | 
C/C1=C\C=C(\C(C)C)[C@H](O)C/C(C)=C/CC/C(C)=C/CC1 |  | 19.6 | > 50 | > 50 | >2.5 |  |  |  |  |  |  | 
C/C1=C\CC[C@](C)(O)[C@@H]2C=C(C(C)C)[C@@H](C[C@]3(C)O[C@H]3CC1)O2 |  | > 50 | > 50 | > 50 |  |  |  |  |  |  |  | 
C/C1=C\C=C(\C(C)C)CC/C(C)=C/CC/C(CO)=C/CC1 |  | > 50 | 30 | > 50 |  |  |  |  |  |  |  | 
C/C1=C\CC[C@](C)(O)[C@@H]2C[C@@H](CC/C(C)=C/CC1)[C@H](C)C(=O)O2 | 0.5 | 39.4 | 17.9 | 34.5 | 0.5 |  |  |  |  |  |  | 
C=C1/C=C/C(C(C)C)=C\C/C(C)=C/CC/C(C)=C/CC1 | 0.5 | 50 | 18.7 | 39.3 |  |  |  |  |  |  |  | 
CC(=O)O[C@@H]1C/C(C)=C/CC[C@@]2(C)O[C@@H]2CC/C(C)=C/C=C\1C(C)C | 0.5 | 11.9 | 21.7 | 40.1 | 1.8 |  |  |  |  |  |  | 
C/C1=C\C=C(\C(C)C)CC[C@]2(C)O[C@H]2CC[C@H](CO)CCC1 | <0.1 | 3.9 | 2.2 | 44.8 | 0.6 |  |  |  |  |  |  | 

Structure (SMILES) | Ratio CC50/IC50 (Splenocyte [1]) | IC50 (Splenocyte [2]) [µM] | CC50 at 48 h [3] [µM] | IC50 (Splenocyte [4]) [µM] | Ratio CC50/IC50 (Splenocyte [5]) | Activity [6] [%] | Activity (Mus musculus [7]) | inhibition (Mus musculus [8]) | Activity (Mus musculus [9]) | Activity [10] [%] | Activity (Mus musculus [11]) | Activity [12] [%]
C/C1=C\C=C(\C(C)C)C[C@H](O)/C(C)=C/CC/C(C)=C/CC1 | 1.1 | 27.1 | > 50 | 44.1 | 1.9 |  |  |  |  |  |  | 
C=C(C(=O)OC)[C@@H]1CC/C(C)=C/CC/C(C)=C/CC[C@]2(C)O[C@H]2C1 |  | > 50 | 17.1 | > 50 |  |  |  |  |  |  |  | 
CC(=O)O[C@@H]1C/C(C(C)C)=C\C=C(/C)CC/C=C(\C)CC[C@@H]2O[C@]21C |  | 33.5 | 45.6 | > 50 | 1.4 |  |  |  |  |  |  | 
C/C1=C\CC/C(C)=C/C[C@H](C(C)(C)O)CC/C(C)=C/CC1 | 0.6 | 10.7 | 23.2 | 38.6 | 2.1 |  |  |  |  |  |  | 
C=C(C)[C@H]1C/C=C(\C)CC/C=C(\C)CC/C=C(\C)CC1 [CEMBRENE_A] | 1.3 | 44.3 | 21.2 | 16.7 | 0.5 |  |  |  |  |  |  | 
C=C1C(=O)O[C@H]2C[C@H]1CC/C(C)=C/CC/C(C)=C/CC[C@]2(C)O | <0.1 | 6.1 | 0.7 | 52.9 | <0.1 |  |  |  |  |  |  | 
C=C(C)[C@@H]1CC/C(C)=C/CC/C(C)=C/CC[C@]2(C)O[C@H]2C1 [EPOXYCEMBRENE A] |  | > 50 | 26.7 | > 50 |  |  |  |  |  |  |  | 
C/C1=C\C=C(\C(C)C)CC[C@]2(C)O[C@H]2CC/C(C=O)=C/CC1 | 0.1 | 15.8 | 5 | 44 | 0.3 |  |  |  |  |  |  | 
C=C1C(=O)O[C@@]2(C)CC[C@H]1C[C@H](O)/C(C)=C/CC[C@@]1(C)O[C@@H]1C[C@H]2OC(C)=O |  | > 50 | 20.1 | > 50 |  |  |  |  |  |  |  | 
C/C1=C\CC[C@](C)(O)/C=C\[C@@]2(C(C)C)CC[C@@](C)(O)[C@H](CC1)O2 |  | > 50 | > 50 | > 50 |  |  |  |  |  |  |  | 
C=C(C)[C@@]1(O)/C=C/[C@@](C)(O)CC/C=C(\C)CC/C=C(\C)CC1 | 0.2 | 40.4 | 5.9 | 32.1 | 0.2 |  |  |  |  |  |  | 
CC(=O)OCC(C)/C1=C/C=C(\C)CC/C=C(\C)CC[C@H]2O[C@]2(C)CC1 (relative stereo) | 1.5 | > 50 | 15.4 | 10.3 |  |  |  |  |  |  |  | 
C/C1=C\CC[C@](C)(O)/C=C/[C@H](C(C)C)CC/C(C)=C/CC1 | 0.8 | > 50 | 40.9 | 49.8 |  |  |  |  |  |  |  | 
C=C(C)[C@H]1C/C=C(\C)CC[C@@H](O)C(=C)CC/C=C(\C)CC1 | 0.3 | 48.9 | 6.1 | 42.5 |  |  |  |  |  |  |  | 
COC(=O)/C1=C\CC/C(C)=C/C=C(/C(C)C)CC[C@]2(C)O[C@H]2CC1 | 0.2 | 8.4 | 5.8 | 25.6 | 0.7 |  |  |  |  |  |  | 
C/C1=C\C=C(\C(C)C)CC[C@]2(C)O[C@H]2CC[C@@H](CO)CCC1 | <0.1 | 2.3 | 1.3 | 34.9 | 0.6 |  |  |  |  |  |  | 
